“And” between values parts separate entries of the source, which are not always exact repeats. Equal entries are not always repeated.
How the values were obtained:
[1] = system: U-CH12 patient-derived chordoma cell line; assay: Cell viability assay (alamarBlue, 72 h), U-CH12; assay type: cell-based, human; conditions: n = 4, 72 h
Protocol: (§1) Chordoma cell lines were cultured as described previously[10],[12],[33],[34]. Briefly, U-CH1 and U-CH2 cell lines were cultured in 4:1 IMDM:RPMI medium supplemented with 10% fetal bovine serum (FBS) and 1% penicillin/streptomycin in gel-coated flasks. […] CH22, UM-Chor1, U-CH12, and U-CH7 cell lines were cultured in RPMI medium supplemented with 10% FBS and 1% penicillin/streptomycin. The cell lines all undergo regular mycoplasma screening.
(§2) Cells were seeded in 384 well plates and were treated with test compound in quadruplicate 24 h after plating. Cell viability was assessed at 72 h using alamarBlue (ThermoFisher, USA). […] IC50 values were determined by four-parameter nonlinear regression analyses using GraphPad Prism™ version 8 software (San Diego, CA).

[2] = system: CH22 patient-derived chordoma cell line; assay: Cell viability assay (alamarBlue, 72 h), CH22; assay type: cell-based, human; conditions: n = 4, 72 h
Protocol: as §1, §2

[3] = system: U-CH1 chordoma cell line; assay: Cell viability assay (alamarBlue, 72 h), U-CH1; assay type: cell-based, human; conditions: n = 4, 72 h
Protocol: as §1, §2

[4] = system: HL60 cells; assay: AsedaSciences SYSTEMETRIC Cell Health Screen (flow cytometry toxicity profiling); conditions: HL60, 4 h, 5 nM–100 µM; for CC: Cell Cycle score / CM: Cell morphology score / CMI: Cell membrane integrity score / GSH: Glutathione score / MMP: Mitochondrial membrane depolarization score / NMI1: Nuclear membrane integrity 1 score / NMI2: Nuclear membrane integrity 2 score / ROS: Reactive superoxide species score: probability 0–1, n = 2; for CHI: Cell Health Index: probability (0–1) of high-risk class, n = 2
Summary of the method: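 HL60 cells (100,000 per well) exposed 4 h at 37 °C, 5% CO2 to 10-step 3× dilutions (5 nM–100 µM), in duplicate. Cells then stained with mitochondrial and cell-stress reporter dyes and read by ungated flow cytometry over twelve parameters. Cell Health Index and eight endpoint scores come from an ML classifier trained on 300 high/low-risk compounds.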

[5] = system: UM-Chor1 patient-derived chordoma cell line; assay: Cell viability assay (alamarBlue, 72 h), UM-Chor1; assay type: cell-based, human; conditions: n = 4, 72 h
Protocol: as §1, §2

[6] = system: U-CH7 patient-derived chordoma cell line; assay: Cell viability assay (alamarBlue, 72 h), U-CH7; assay type: cell-based, human; conditions: n = 4, 72 h
Protocol: as §1, §2

[7] = molecular target: EGFR (Homo sapiens, UniProt P00533); assay: ProQinase in-cell EGFR assay (EGFR phosphorylation in A431 cells); assay type: cell-based; design: This cell line endogenously expresses a high level of EGFR; endogenous in cells; host or cells: A431; conditions: ProQinase in-cell EGFR assay, A431 cells, n = 1
EGFR, sequence (P00533 25-1210): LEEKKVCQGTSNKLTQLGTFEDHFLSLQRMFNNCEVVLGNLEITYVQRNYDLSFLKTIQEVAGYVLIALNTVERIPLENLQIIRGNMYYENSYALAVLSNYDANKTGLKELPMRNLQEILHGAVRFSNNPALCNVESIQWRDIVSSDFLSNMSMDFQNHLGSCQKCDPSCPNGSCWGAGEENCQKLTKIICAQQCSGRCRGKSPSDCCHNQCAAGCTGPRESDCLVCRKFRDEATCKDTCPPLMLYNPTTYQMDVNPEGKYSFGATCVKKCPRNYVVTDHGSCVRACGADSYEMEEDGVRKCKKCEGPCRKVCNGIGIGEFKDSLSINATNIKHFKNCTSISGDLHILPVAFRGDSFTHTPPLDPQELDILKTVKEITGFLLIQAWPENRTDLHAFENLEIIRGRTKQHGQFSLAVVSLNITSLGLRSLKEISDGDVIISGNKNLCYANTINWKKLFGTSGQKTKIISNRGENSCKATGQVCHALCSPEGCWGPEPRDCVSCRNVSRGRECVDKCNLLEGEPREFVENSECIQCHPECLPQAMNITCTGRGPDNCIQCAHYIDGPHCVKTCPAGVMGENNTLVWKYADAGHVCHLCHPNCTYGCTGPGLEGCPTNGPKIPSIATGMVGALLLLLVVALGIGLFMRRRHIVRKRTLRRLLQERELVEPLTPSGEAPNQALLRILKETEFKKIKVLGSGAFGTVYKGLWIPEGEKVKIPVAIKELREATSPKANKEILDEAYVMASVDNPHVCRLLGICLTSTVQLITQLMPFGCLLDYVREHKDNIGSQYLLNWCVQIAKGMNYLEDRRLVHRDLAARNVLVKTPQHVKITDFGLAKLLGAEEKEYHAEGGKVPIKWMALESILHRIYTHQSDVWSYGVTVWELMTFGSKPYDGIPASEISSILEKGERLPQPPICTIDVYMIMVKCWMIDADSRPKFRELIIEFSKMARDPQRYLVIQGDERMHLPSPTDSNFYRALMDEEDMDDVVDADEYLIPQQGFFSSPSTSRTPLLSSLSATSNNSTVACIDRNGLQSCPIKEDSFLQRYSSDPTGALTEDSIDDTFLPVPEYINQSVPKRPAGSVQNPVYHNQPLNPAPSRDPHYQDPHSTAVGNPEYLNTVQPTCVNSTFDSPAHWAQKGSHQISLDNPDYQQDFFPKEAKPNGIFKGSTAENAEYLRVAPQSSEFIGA
Source text: In addition, we ran an EGFR in-cell target engagement assay, measuring in-cell EGFR phosphorylation, using the human epidermoid carcinoma cell line A431. This cell line endogenously expresses a high level of EGFR, and stimulation of these cells with human epidermal growth factor (EGF) results in receptor tyrosine autophosphorylation.

[8] = system: U-CH2 chordoma cell line; assay: Cell viability assay (alamarBlue, 72 h), U-CH2; assay type: cell-based, human
Protocol: as §1, §2

[9] = system: WS1 human fibroblast cell line; assay: Cell viability assay, WS1 toxicity control; assay type: cell-based; conditions: n = 4, nonspecific toxicity control
Protocol: as §2

| SMILES | IC50 [1] [µM] | IC50 [2] [µM] | IC50 [3] [µM] | CC: Cell Cycle score [4] | CM: Cell morphology score [4] | CMI: Cell membrane integrity score [4] | GSH: Glutathione score [4] | MMP: Mitochondrial membrane depolarization score [4] | NMI1: Nuclear membrane integrity 1 score [4] | NMI2: Nuclear membrane integrity 2 score [4] | ROS: Reactive superoxide species score [4] | CHI: Cell Health Index [4] | IC50 [5] [µM] | IC50 [6] [µM] | IC50 [7] [µM] | IC50 ([8]; n = 4, 72 h) [µM] | IC50 [9] [µM] | further results |
| --- | --- | --- | --- | --- | --- | --- | --- | --- | --- | --- | --- | --- | --- | --- | --- | --- | --- | --- |
| C#Cc1ccc(F)c(Nc2ncnc3cc(I)ccc23)c1 [Compound 38] | > 100 | > 100 | 15 | 0.98 | 1.00 | 1.00 | 1.00 | 0.96 | 0.99 | 1.00 | 1.00 | 0.88 | > 100 | > 100 | 5.2 | > 100 | > 100 |  |
| C#Cc1cccc(Nc2ccnc3cc(I)ccc23)c1F [Compound 39] | 33 | 40 | 2.4 | 0.64 | 0.98 | 0.30 | 0.92 | 0.60 | 0.15 | 0.75 | 0.99 | 0.43 | 62 | 49 | 1.7 | 15 | 40 |  |
| C#Cc1cccc(Nc2ncnc3cc(I)ccc23)c1 [Compound 15] | > 100 | > 100 | 17 | 0.95 | 1.00 | 1.00 | 0.98 | 0.99 | 0.21 | 0.94 | 1.00 | 0.77 | > 100 | > 100 | 2.8 | > 100 | > 100 |  |
| C#Cc1cccc(Nc2ccnc3ccc(I)cc23)c1F [Compound 35] | > 100 | > 100 | 8.9 | 0.12 | 0.0052 | 0.78 | 0.16 | 0.47 | 0.62 | 0.62 | 0.46 | 0.37 | > 100 | > 100 | 1.9 | > 100 | 85 |  |
| C#Cc1cccc(Nc2ncnc3cc(OC)ccc23)c1 [Compound 11] | > 100 | > 100 | 1.9 | 0.52 | 0.050 | 0.032 | 0.0085 | 0.068 | 0.61 | 0.15 | 0.63 | 0.25 | > 100 | 95 | 0.53 | 1.2 | 88 |  |
| C#Cc1cccc(Nc2ncnc3cc(C(F)(F)F)ccc23)c1 [Compound 16] | 7.5 | 8 | 12 | 0.92 | 1.00 | 0.87 | 0.79 | 1.00 | 0.6 | 0.93 | 1.00 | 0.78 | 31 | 63 | > 20 | 15 | 18 |  |
| C#Cc1cccc(Nc2ncnc3cc(OC)c(OC)cc23)c1F [Compound 43] | > 100 | 5.8 | 2 | 0.059 | 0.0093 | 0.56 | 0.38 | 0.28 | 0.10 | 0.59 | 0.024 | 0.33 | > 100 | 57 | 0.06 | 7.1 | 12 |  |
| C#Cc1cccc(Nc2ncnc3cc(C#N)ccc23)c1 [Compound 17] | > 100 | > 100 | 65 | 0.25 | 0.43 | 0.052 | 0.04 | 0.10 | 0.37 | 0.10 | 0.41 | 0.45 | > 100 | > 100 | > 20 | > 100 | > 100 |  |
| C#Cc1cccc(Nc2ncnc3ccc(I)cc23)c1 [Compound 9, N-(3-ethynylphenyl)-6-iodoquinazolin-4-amine] |  |  |  | 0.087 and 0.071 | 0.0063 |  | 0.050 and 0.029 |  | 0.13 and 0.069 |  | 0.083 and 0.088 | 0.21 |  |  | 0.83 |  |  | IC50 ([1]; Homo sapiens): > 100 µM; IC50 ([2]; Homo sapiens): > 100 µM; IC50 ([3]; Homo sapiens, UCH1, 72 h): 8.7 µM; IC50 ([5]; Homo sapiens): > 100 µM; IC50 ([6]; Homo sapiens): > 100 µM; IC50 ([8]; Homo sapiens, UCH2, n = 4, 72 h): > 100 µM; IC50 ([9]; Homo sapiens, Fibroblast): 98 µM |
| C#Cc1cc(Nc2ncnc3ccc(I)cc23)ccc1Cl [Compound 37] | > 100 | > 100 | 31 | 0.080 | 0.26 | 0.54 | 0.18 | 0.24 | 0.41 | 0.33 | 0.91 | 0.33 | > 100 | > 100 | 2 | 5 | > 100 |  |
| C#Cc1cccc(Nc2ncnc3cc4c(cc23)OCCO4)c1 [Compound 21] | > 100 | > 100 | 8.8 | 0.77 | 0.053 | 0.91 | 0.39 | 0.91 | 0.73 | 0.83 | 0.85 | 0.56 | 64 | > 100 | 1.9 | > 100 | > 100 |  |
